Assays:
[1] = target: T1, PAR2 (HT-29 cells, SLIGKV activation) (Homo sapiens, UniProt P55085); experiment: Ca FLIPR TETRA assay, ANTAGONIST mode, stimulation with 8 μM SLIGKV; assay type: cell-based; settings: for IC50: HT-29 cells, stimulation with 8 μM SLIGKV
T1 construct: host or cells: HT-29 cells
T1 sequence (P55085 26-397): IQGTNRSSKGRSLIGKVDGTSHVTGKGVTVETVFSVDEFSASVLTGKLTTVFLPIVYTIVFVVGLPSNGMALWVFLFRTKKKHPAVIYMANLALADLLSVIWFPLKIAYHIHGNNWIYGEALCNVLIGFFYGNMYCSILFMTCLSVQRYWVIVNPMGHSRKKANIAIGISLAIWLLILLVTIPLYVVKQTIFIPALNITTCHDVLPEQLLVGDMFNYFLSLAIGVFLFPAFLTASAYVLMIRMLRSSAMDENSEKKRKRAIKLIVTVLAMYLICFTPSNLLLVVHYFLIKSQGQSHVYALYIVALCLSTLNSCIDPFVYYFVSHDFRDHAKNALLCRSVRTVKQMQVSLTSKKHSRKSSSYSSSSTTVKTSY
Outline: (§1)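 Cells plated overnight at 37 °C, 5% CO2 in 1% FBS medium; dye loading 45 min at 37 °C then 15 min r.t.; compound added from DMSO/HBSS dilution; first read for intrinsic Ca2+ activation; 30 min r.t. incubation; antagonist read after addition of the fixed activator (8 μM SLIGKV, 1 U/mL thrombin, 3.1 U/mL trypsin or 0.6 μM UTP).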

[2] = target: T2, PAR2 (HT-29 cells, trypsin activation) (Homo sapiens, UniProt P55085); experiment: Ca FLIPR TETRA assay, ANTAGONIST mode, stimulation with 3.1 U/mL trypsin; assay type: cell-based; settings: HT-29 cells, stimulation with 3.1 U/mL trypsin
T2 construct: host or cells: HT-29 cells
T2 sequence (P55085 26-397): T1 sequence (P55085 26-397)
Outline: as §1

[3] = tested on: UTP-stimulated Ca2+ response in HT-29 cells; experiment: Ca FLIPR TETRA assay, ANTAGONIST mode, stimulation with 0.6 μM UTP; assay type: cell-based, human; settings: for IC50: Homo sapiens, HT-29 cells, stimulation with 0.6 μM UTP
Outline: as §1

[4] = tested on: Thrombin-stimulated Ca2+ response in HT-29 cells; experiment: Ca FLIPR TETRA assay, ANTAGONIST mode, stimulation with 1 U/mL Thrombin; assay type: cell-based, human; settings: for IC50: Homo sapiens, HT-29 cells, stimulation with 1 U/mL Thrombin
Outline: as §1

Compound | IC50 [1] [nM] | IC50 [2] [nM] | IC50 [3] [µM] | IC50 [4] [µM] | SLIGKV % @ concentration ([1]; @ 0.069 (μM)) [% @ 0.069] | UTP % @ concentration ([3]; @ 50 (μM)) [% @ 50] | Thrombin % @ concentration ([4]; @ 50 (μM)) [% @ 50]
Cc1cc(-c2ccc(F)cc2)nn2cc(C(=O)N3CCC(C#N)CC3)nc12 [Compound I-60] | 7900 | 14000 | 40 | 32 |  |  | 
Cc1cc(-c2ccc(F)cc2)nn2cc(C(=O)N3CCCC4(COC4)C3)nc12 [Compound I-61] | 13000 | 19000 | 38 | 26 |  |  | 
CCOC1CCN(C(=O)c2cn3nc(-c4ccc(F)cc4)cc(C)c3n2)CC1 [Compound I-62] | 7400 | 29000 | 44 | 38 |  |  | 
CCNC(=O)OC1CCN(C(=O)c2cn3nc(-c4ccc(F)cc4)cc(C)c3n2)CC1 [Compound I-63] | 1000 | 4100 | 37 | 35 |  |  | 
COC(=O)[C@@H]1CCN(C(=O)c2cn3nc(-c4ccc(F)cc4)cc(C(F)(F)F)c3n2)C[C@@H]1C [Compound I-64] | 110 | 220 | 42 | 5.7 |  |  | 
O=C1CCN(C(=O)c2cn3nc(-c4ccc(F)cc4)cc(C(F)(F)F)c3n2)CC1 [Compound I-66] | 5000 | 12000 | > 50 | 48 |  |  | 
O=C(c1cn2nc(-c3ccc(F)cc3)cc(C(F)(F)F)c2n1)N1CCCCC1c1ccncc1 (stereo not drawn) [Compound I-67] | 3100 | 3600 | 8.1 | 6.7 |  |  | 
CC1CN(C(=O)c2cn3nc(-c4ccc(F)cc4)cc(C(F)(F)F)c3n2)CCC1O (stereo not drawn) [Compound I-68] | 5900 | 13000 | 29 | 19 |  |  | 
CC(C)(O)C1CCCN(C(=O)c2cn3nc(-c4ccc(F)cc4)cc(C(F)(F)F)c3n2)C1 (stereo not drawn) [Compound I-69] | 6000 | 9300 | 36 | 8.5 |  |  | 
O=C(c1cn2nc(-c3ccc(F)cc3)cc(C(F)(F)F)c2n1)N1CC[C@@]2(O)CCCC[C@H]2C1 [Compound I-70] | 3700 | 5700 | 17 | 12 |  |  | 
O=C(c1cn2nc(-c3ccc(F)cc3)cc(C(F)(F)F)c2n1)N1CCCCC1c1ccccc1 (stereo not drawn) [Compound I-71] | 950 | 680 | > 50 | 43 |  |  | 
Cc1noc(C2CCCCN2C(=O)c2cn3nc(-c4ccc(F)cc4)cc(C(F)(F)F)c3n2)n1 (stereo not drawn) [Compound I-72] | 1400 | 1500 | > 50 | 50 |  |  | 
CCOC(=O)[C@@H]1CCCN(C(=O)c2cn3nc(-c4ccc(F)cc4)cc(C(F)(F)F)c3n2)[C@@H]1C [Compound I-75] | 1100 | 1200 | 2.2 | 1.6 |  |  | 
CCOC(=O)[C@H]1CCCN(C(=O)c2cn3nc(-c4ccc(F)cc4)cc(C(F)(F)F)c3n2)[C@@H]1C [Compound I-76] | 3300 | 4800 | 4.4 | 5.5 |  |  | 
O=C(c1cn2nc(-c3ccc(F)cc3)cc(C(F)(F)F)c2n1)N1CCCCC1c1ccn[nH]1 (stereo not drawn) [Compound I-78] | 510 | 1600 | 4.5 | 4.1 |  |  | 
O=C(c1cn2nc(-c3ccc(F)cc3)cc(C(F)(F)F)c2n1)N1CCCCC1c1ccccn1 (stereo not drawn) [Compound I-79] | 1300 | 1700 | 3 | 2 |  |  | 
O=C(c1cn2nc(-c3ccc(F)cc3)cc(C(F)(F)F)c2n1)N1CCC(n2cc(-c3ccccc3)[nH]c2=O)CC1 [Compound I-80] | 54 | 82 | > 5 | > 5 |  |  | 
NC(=O)C1CCCCN1C(=O)c1cn2nc(-c3ccc(F)cc3)cc(C(F)(F)F)c2n1 (stereo not drawn) [Compound I-81] | 6700 | 12000 | 17 | 9.2 |  |  | 
C[C@H]1CN(C(=O)c2cn3nc(-c4ccc(F)cc4)cc(C(F)(F)F)c3n2)CCN1C(=O)OCC(C)(C)C [Compound I-82] | 22 | 100 | 22 | 14 |  |  | 
C[C@H]1CN(C(=O)c2cn3nc(-c4ccc(F)cc4)cc(C(F)(F)F)c3n2)CCN1C(=O)Oc1ccccc1 [Compound I-83] |  | > 50000 | > 50 | > 50 | 46 |  | 

Compound | IC50 [1] [nM] | IC50 [2] [nM] | IC50 [3] [µM] | IC50 [4] [µM] | SLIGKV % @ concentration ([1]; @ 0.069 (μM)) [% @ 0.069] | UTP % @ concentration ([3]; @ 50 (μM)) [% @ 50] | Thrombin % @ concentration ([4]; @ 50 (μM)) [% @ 50]
CC(C)(C)OC(=O)N1CCCN(C(=O)c2cn3nc(-c4ccc(F)cc4)cc(C(F)(F)F)c3n2)CC1 [Compound I-84] | 790 | 1800 | 5.1 | 6.4 |  |  | 
C[C@H]1CN(C(=O)c2cn3nc(-c4ccc(F)cc4)cc(C(F)(F)F)c3n2)CCN1C(=O)[C@@H]1CCCO1 [Compound I-85] | 1600 | 10000 | 40 | 49 |  |  | 
C[C@H]1CN(C(=O)c2cn3nc(-c4ccc(F)cc4)cc(C(F)(F)F)c3n2)CCN1C(=O)C1CCCCC1 [Compound I-86] | 78 | 600 | 37 | 35 |  |  | 
C[C@H]1CN(C(=O)c2cn3nc(-c4ccc(F)cc4)cc(C(F)(F)F)c3n2)CCN1C(=O)c1ccccc1 [Compound I-89] | 270 | 900 | > 50 | > 50 |  |  | 
C[C@H]1CN(C(=O)c2cn3nc(-c4ccc(F)cc4)cc(C(F)(F)F)c3n2)CCN1C(=O)Cc1ccccc1 [Compound I-90] | 15 | 44 | > 5 | > 5 |  |  | 
CC(C)C(O)C(=O)N1CCN(C(=O)c2cn3nc(-c4ccc(F)cc4)cc(C(F)(F)F)c3n2)C[C@@H]1C (stereo partly drawn) [Compound I-91] | 69 | 1500 | 20 | 26 |  |  | 
C[C@H]1CN(C(=O)c2cn3nc(-c4ccc(F)cc4)cc(C(F)(F)F)c3n2)CCN1C(=O)C(O)Cc1ccccc1 (stereo partly drawn) [Compound I-92] | 10 | 15 | > 5 | > 5 |  |  | 
CC1CN(C(=O)c2cn3nc(-c4ccc(F)cc4)cc(C(F)(F)F)c3n2)CCCN1C(=O)OC(C)(C)C (stereo not drawn) [Compound I-94] | 3600 | 12000 | > 50 | > 50 |  |  | 
CNC(=O)[C@@H]1CCN(C(=O)c2cn3nc(-c4ccc(F)cc4)cc(C(F)(F)F)c3n2)C[C@@H]1C [Compound I-95] | 1600 | 7200 | 43 | > 50 |  |  | 
CC(C)c1cc(-c2ccc(F)cc2)nn2cc(C(=O)N3CCN(C(=O)OC(C)(C)C)[C@@H](C)C3)nc12 [Compound I-96] | 44 | 150 |  |  |  | 66 | 52
CC(C)c1cc(-c2ccc(F)cc2)nn2cc(C(=O)N3CCN(C(=O)[C@H](O)CC(C)(C)C)[C@@H](C)C3)nc12 [Compound I-97] | 0.7 | 0.6 | > 5 | > 5 |  |  | 
C=C(C)c1cc(-c2ccc(F)cc2)nn2cc(C(=O)N3CCN(C(=O)[C@H](O)CC(C)(C)C)[C@@H](C)C3)nc12 [Compound I-99] | 3 | 10 | > 50 | > 50 |  |  | 
C[C@H]1CN(C(=O)c2cn3nc(-c4ccc(F)cc4)cc(C(F)(F)F)c3n2)CCN1C(=O)C(O)c1cccnc1 (stereo partly drawn) [Compound I-100] | 200 | 3000 | 48 | 43 |  |  | 
CC(C)c1cc(-c2ccc(F)cc2)nn2cc(C(=O)N3CCN(C(=O)C(O)c4cccnc4)[C@@H](C)C3)nc12 (stereo partly drawn) [Compound I-101] | 7 | 1400 | 30 | 27 |  |  | 
Cc1cc(-c2ccc(F)cc2)nn2cc(C(=O)N3CCN(C(=O)[C@H](O)CC(C)(C)C)CC3(C)C)nc12 [Compound I-102] | 3 | 8 | 23 | 17 |  |  | 
CC(C)c1cc(-c2ccc(F)cc2)nn2cc(C(=O)N3CCN(C(=O)[C@H](O)CC(C)(C)C)CC3(C)C)nc12 [Compound I-103] | 0.4 | 0.9 | > 5 | > 5 |  |  | 
CCc1cc(-c2ccc(F)cc2)nn2cc(C(=O)N3CCN(C(=O)[C@H](O)CC(C)(C)C)[C@@H](C)C3)nc12 [Compound I-104] | 2 | 7 | 12 | 15 |  |  | 
CC(C)C[C@@H](O)C(=O)N1CCN(C(=O)c2cn3nc(-c4ccc(F)cc4)cc(C(C)C)c3n2)C[C@@H]1C [Compound I-105] | 0.4 | 0.8 | 8.8 | 10 |  |  | 
CC(C)c1cc(-c2ccc(F)cc2)nn2cc(C(=O)N3CCN(C(=O)[C@H](O)c4ccccc4Cl)[C@@H](C)C3)nc12 [Compound I-106] | 0.6 | 1 | > 5 | > 5 |  |  | 
